Results published in publication PMC6131557, “Selective Cytotoxicity of Dihydroorotate Dehydrogenase Inhibitors to Human Cancer Cells Under Hypoxia and Nutrient-Deprived Conditions” (Frontiers in Pharmacology, 2018).
Read-outs that look alike come from different tables or passages of the source.

Tests used:
OVCAR-5 = experiment: 39-cancer cell panel assay: OVCAR-5; format: cell-based; details: Homo sapiens, Ov
OVCAR-3 = experiment: 39-cancer cell panel assay: OVCAR-3; format: cell-based; details: Homo sapiens, Ov
Complexes I–III = experiment: NADH-cytochrome c reductase (complexes I–III) activity, bovine mitochondria; format: biochemical
Experimental: (§1) Recombinant human DHODH was purified, crystallized, and assayed as previously described ([Inaoka et al., 2016]) without modification. Bovine mitochondrial fractions were prepared as previously described ([Kita et al., 1988]) and NADH dehydrogenase (complex I), succinate:quinone reductase (complex II), quinol oxidase (complexes III–IV), NADH-cytochrome c reductase (complexes I–III), and succinate-cytochrome c (complexes II–III) activities were assayed following an established method ([Takamiya et al., 1986]; [Miyadera et al., 2001]; [Matsumoto et al., 2008]; [Kido et al., 2010]; [Nihashi et al., 2017]).

BSY-1 = experiment: 39-cancer cell panel assay: BSY-1; format: cell-based; details: Homo sapiens, Br
NCI-H23 = experiment: 39-cancer cell panel assay: NCI-H23; format: cell-based; details: Homo sapiens, Lu
HBC-5 = experiment: 39-cancer cell panel assay: HBC-5; format: cell-based; details: Homo sapiens, HBC5, Br
SF-295 = experiment: 39-cancer cell panel assay: SF-295; format: cell-based; details: Homo sapiens, CNS
St-4 = experiment: 39-cancer cell panel assay: St-4; format: cell-based; details: Homo sapiens
PC-3 = experiment: 39-cancer cell panel assay: PC-3; format: cell-based; details: Homo sapiens, Pro
MKN74 = experiment: 39-cancer cell panel assay: MKN74; format: cell-based; details: Homo sapiens, MKN-74, St
HDF cells = experiment: Cytotoxicity assay (Cell Counting Kit-8 / WST-8) on HDF cells; format: cell-based; details: Homo sapiens
Experimental: (§2) For hypoxia and nutrient-deprived culture conditions, cells were incubated under 1% oxygen in glucose and glutamine-free DMEM (Gibco) without FBS.
(§3) DLD-1 or HDF cells were seeded at 2.5 × 10^4 cells/well on a 96-well plate with normal medium, and cultured overnight under normal culture condition. The cells were washed with PBS and the medium was replaced to either normal medium or glucose and glutamine-free DMEM without FBS. Test compounds or DMSO as a control were added to the wells. The cells in normal medium were cultured under normal culture conditions, while cells in nutrient-deprived medium were cultured under hypoxia condition. After 24 or 48 h incubation, the cells were washed with PBS, 100 μl of fresh normal medium, and 10 μl of Cell Counting Kit-8 solution (Donjindo, Japan) was added to each well. After 3 h incubation under normal culture condition, the absorbance was measured at 450 nm using SpectraMax M2e-TUY microplate reader (Molecular Devices). Cell viability of test wells was calculated based on absorbance of control wells containing DMSO according to manufacturer’s protocol.

Complex I = experiment: NADH dehydrogenase (complex I) activity, bovine mitochondria; format: biochemical; details: at 5 μM
Experimental: as §1

[1] = target: T1, human dihydroorotate dehydrogenase (HsDHODH) (Homo sapiens, UniProt Q02127); experiment: Inhibition of recombinant human DHODH enzyme activity; format: biochemical; details: for IC50: recombinant human DHODH
T1 construct: made in house

A549 = experiment: 39-cancer cell panel assay: A549; format: cell-based; details: Homo sapiens, Lu
MCF-7 = experiment: 39-cancer cell panel assay: MCF-7; format: cell-based; details: Homo sapiens, MCF7, Br
U251 = experiment: 39-cancer cell panel assay: U251; format: cell-based; details: Homo sapiens, U-251, CNS
KM-12 = experiment: 39-cancer cell panel assay: KM-12; format: cell-based, human; details: Co
HT-29 = experiment: 39-cancer cell panel assay: HT-29; format: cell-based; details: Homo sapiens, Co
SK-OV-3 = experiment: 39-cancer cell panel assay: SK-OV-3; format: cell-based; details: Homo sapiens
Complex II–III = experiment: Succinate-cytochrome c reductase (complexes II–III) activity, bovine mitochondria; format: biochemical
Experimental: as §1

SF-539 = experiment: 39-cancer cell panel assay: SF-539; format: cell-based; details: Homo sapiens, CNS
Complex III = target: T2, Complex III (Bos taurus, UniProt P00157); experiment: Quinol oxidase (complex III) activity, bovine mitochondria; format: biochemical; details: ubiquinol oxidase activity
T2 construct: from tissue; host or cells: bovine mitochondrial fraction / sub-mitochondrial particles

MKN7 = experiment: 39-cancer cell panel assay: MKN7; format: cell-based; details: Homo sapiens, MKN-7, St
NCI-H226 = experiment: 39-cancer cell panel assay: NCI-H226; format: cell-based; details: Homo sapiens, Lu
OVCAR-4 = experiment: 39-cancer cell panel assay: OVCAR-4; format: cell-based; details: Homo sapiens, Ov
DLD-1 cells = experiment: Cytotoxicity assay (Cell Counting Kit-8 / WST-8) on DLD-1 cells; format: cell-based, human; details: Homo sapiens
Experimental: as §2, §3

MDA-MB-231 = experiment: 39-cancer cell panel assay: MDA-MB-231; format: cell-based; details: Homo sapiens, Br
SNB-78 = experiment: 39-cancer cell panel assay: SNB-78; format: cell-based; details: Homo sapiens, CNS
SNB-75 = experiment: 39-cancer cell panel assay: SNB-75; format: cell-based; details: Homo sapiens, CNS
SF-268 = experiment: 39-cancer cell panel assay: SF-268; format: cell-based; details: Homo sapiens, CNS
DMS273 = experiment: 39-cancer cell panel assay: DMS273; format: cell-based; details: Homo sapiens, DMS-273, Lu
HCT-116 = experiment: 39-cancer cell panel assay: HCT-116; format: cell-based; details: Homo sapiens, Co
Complex II = target: T3, Complex II (Bos taurus, UniProt P35720+Q3T189+Q95123); experiment: Succinate:quinone reductase (complex II) activity, bovine mitochondria; format: biochemical
T3 construct: from tissue; host or cells: bovine mitochondrial fraction / sub-mitochondrial particles

HBC-4 = experiment: 39-cancer cell panel assay: HBC-4; format: cell-based; details: Homo sapiens, HBC4, Br
OVCAR-8 = experiment: 39-cancer cell panel assay: OVCAR-8; format: cell-based; details: Homo sapiens, Ov
LOX-IMVI = experiment: 39-cancer cell panel assay: LOX-IMVI; format: cell-based; details: Homo sapiens, Me
MKN45 = experiment: 39-cancer cell panel assay: MKN45; format: cell-based; details: Homo sapiens, MKN-45, St
HCC2998 = experiment: 39-cancer cell panel assay: HCC2998; format: cell-based; details: Homo sapiens, HCC 2998, Co
ACHN = experiment: 39-cancer cell panel assay: ACHN; format: cell-based; details: Homo sapiens, Re
MKN28 = experiment: 39-cancer cell panel assay: MKN28; format: cell-based; details: Homo sapiens, MKN-28, St
NCI-H460 = experiment: 39-cancer cell panel assay: NCI-H460; format: cell-based; details: Homo sapiens, Lu
MKN1 = experiment: 39-cancer cell panel assay: MKN1; format: cell-based; details: Homo sapiens, MKN-1, St
DU-145 = experiment: 39-cancer cell panel assay: DU-145; format: cell-based; details: Homo sapiens, Pro
RXF-631L = experiment: 39-cancer cell panel assay: RXF-631L; format: cell-based; details: Homo sapiens, Re
NCI-H522 = experiment: 39-cancer cell panel assay: NCI-H522; format: cell-based; details: Homo sapiens, Lu
DMS114 = experiment: 39-cancer cell panel assay: DMS114; format: cell-based; details: Homo sapiens, DMS-114, Lu
HCT-15 = experiment: 39-cancer cell panel assay: HCT-15; format: cell-based; details: Homo sapiens, Co
mammalian complex III = system: mammalian complex III; design: method as in Berry et al., 2010; details: ref Berry et al., 2010; read-out: IC50 against mammalian complex III; cited from earlier work
[2] = purified enzyme fixed at 10 nM, read-out: IC50 (nM), inhibition of human DHODH

T1 sequence (Q02127 whole entry): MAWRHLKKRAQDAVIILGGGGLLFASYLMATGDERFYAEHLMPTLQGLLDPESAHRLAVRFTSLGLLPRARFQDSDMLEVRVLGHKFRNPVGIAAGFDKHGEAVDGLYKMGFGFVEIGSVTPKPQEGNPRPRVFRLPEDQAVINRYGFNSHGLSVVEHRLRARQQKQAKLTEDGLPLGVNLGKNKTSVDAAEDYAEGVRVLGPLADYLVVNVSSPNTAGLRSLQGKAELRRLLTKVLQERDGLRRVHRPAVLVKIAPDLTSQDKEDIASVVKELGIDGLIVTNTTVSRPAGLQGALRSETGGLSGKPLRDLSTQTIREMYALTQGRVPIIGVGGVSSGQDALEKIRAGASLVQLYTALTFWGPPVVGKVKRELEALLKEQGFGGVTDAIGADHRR
T3 sequence (P31039 45-665 partner limits assumed): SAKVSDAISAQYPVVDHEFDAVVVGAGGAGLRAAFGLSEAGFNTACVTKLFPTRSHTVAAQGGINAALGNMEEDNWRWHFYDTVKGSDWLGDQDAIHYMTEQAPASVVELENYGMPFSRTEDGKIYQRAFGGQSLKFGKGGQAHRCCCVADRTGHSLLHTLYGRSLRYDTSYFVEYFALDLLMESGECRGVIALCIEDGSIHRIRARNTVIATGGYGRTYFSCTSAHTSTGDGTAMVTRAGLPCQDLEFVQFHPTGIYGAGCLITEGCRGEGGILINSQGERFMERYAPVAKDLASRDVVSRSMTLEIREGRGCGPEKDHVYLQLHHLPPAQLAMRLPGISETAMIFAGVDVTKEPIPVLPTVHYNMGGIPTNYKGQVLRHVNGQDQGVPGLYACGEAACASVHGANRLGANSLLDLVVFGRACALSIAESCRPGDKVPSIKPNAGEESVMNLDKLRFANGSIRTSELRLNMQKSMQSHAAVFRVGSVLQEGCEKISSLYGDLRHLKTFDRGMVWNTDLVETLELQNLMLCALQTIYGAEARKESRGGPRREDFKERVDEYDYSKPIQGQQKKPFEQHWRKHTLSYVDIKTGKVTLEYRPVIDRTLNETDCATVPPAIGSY
T3 sequence (Q3T189 29-280): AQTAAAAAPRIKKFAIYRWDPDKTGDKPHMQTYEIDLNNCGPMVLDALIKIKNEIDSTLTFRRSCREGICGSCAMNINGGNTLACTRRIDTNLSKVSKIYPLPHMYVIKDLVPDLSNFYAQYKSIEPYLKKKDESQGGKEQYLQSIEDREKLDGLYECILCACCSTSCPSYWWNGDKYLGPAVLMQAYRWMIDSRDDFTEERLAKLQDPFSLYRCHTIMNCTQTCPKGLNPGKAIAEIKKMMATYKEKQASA
T3 sequence (P35720 30-169): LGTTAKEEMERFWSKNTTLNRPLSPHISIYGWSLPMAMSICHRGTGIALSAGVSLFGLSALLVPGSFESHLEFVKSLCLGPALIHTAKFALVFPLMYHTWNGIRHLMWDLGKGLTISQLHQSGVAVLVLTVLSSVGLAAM
T3 sequence (Q95123 56-158): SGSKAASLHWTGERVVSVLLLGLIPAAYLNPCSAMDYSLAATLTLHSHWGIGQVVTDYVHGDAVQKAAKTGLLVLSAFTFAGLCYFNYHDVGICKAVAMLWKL

Compound `COC(=O)/C(C)=C/CC/C(C)=C/Cc1c(O)c(Cl)c(C)c(C=O)c1O` [Compound 9] has a GI50 (OVCAR-5) of 12 µM, a GI50 (OVCAR-3) of 5.3 µM and an IC50 (Complexes I–III) of 1 ± 0.02 µM. For the same compound, the GI50 (BSY-1) was 27 µM, the GI50 (NCI-H23) was 7.8 µM and the GI50 (HBC-5) was 28 µM. It also gave a GI50 (SF-295) of 11 µM, a GI50 (St-4) of 7.5 µM and a GI50 (PC-3) of 22 µM. For the same compound, the GI50 (MKN74) was 14 µM, the IC50 (HDF cells; read-out: IC50 (μM) HDF (24 h) Hypoxia nutrient (-), hypoxia (1% oxygen), nutrient (-)) was 3.1 ± 0.19 µM and the IC50 (HDF cells; read-out: IC50 (μM) HDF (24 h) Normoxia nutrient (+), normoxia, nutrient (+)) was > 100 µM. For the same compound, the “Inhibition (%) Complex I” value (Complex I) was 7.6 ± 4.2%, the IC50 [1, 2] was ~5 nM and the GI50 (A549) was 4.7 µM. The GI50 (MCF-7) was 7.3 µM, the GI50 (U251) was 0.97 µM and the “GI50 (μM) KM-12” value (KM-12) was 6.4 µM. The GI50 (HT-29) was 6.5 µM, the GI50 (SK-OV-3) was 11 µM and the IC50 (Complex II–III) was 5.7 ± 0.37 µM. For the same compound, the GI50 (SF-539) was 0.54 µM, the inhibition at 5 µM (Complex III) was > 80% and the GI50 (MKN7) was 13 µM. For the same compound, the GI50 (NCI-H226) was 13 µM, the GI50 (OVCAR-4) was 11 µM and the IC50 (DLD-1 cells; read-out: IC50 (μM) DLD-1 (24 h) Hypoxia nutrient (-), DLD-1, 24 h, hypoxia (1% oxygen), nutrient (-)) was 1.6 ± 0.42 µM. The IC50 (DLD-1 cells; read-out: IC50 (μM) DLD-1 (24 h) Normoxia nutrient (+), DLD-1, 24 h, normoxia, nutrient (+)) was > 100 µM, the IC50 (DLD-1 cells; DLD-1, 48 h, hypoxia (1% oxygen), nutrient (-), read-out: IC50 (μM) DLD-1 (48 h) Hypoxia nutrient (-)) was 0.67 ± 0.066 µM and the IC50 (DLD-1 cells; DLD-1, 48 h, normoxia, nutrient (+), read-out: IC50 (μM) DLD-1 (48 h) Normoxia nutrient (+)) was > 100 µM. The GI50 (MDA-MB-231) was 14 µM, the GI50 (SNB-78) was 8.8 µM and the GI50 (SNB-75) was 9.7 µM. For the same compound, the GI50 (SF-268) was 8.1 µM, the GI50 (DMS273) was 3 µM and the GI50 (HCT-116) was 2.5 µM. The inhibition at 5 µM (Complex II) was 5.3 ± 4.1%, the GI50 (HBC-4) was 5.6 µM and the GI50 (OVCAR-8) was 9.1 µM. For the same compound, the GI50 (LOX-IMVI) was 2.1 µM, the GI50 (MKN45) was 14 µM and the GI50 (HCC2998) was 17 µM. The GI50 (ACHN) was 9.9 µM, the GI50 (MKN28) was 12 µM and the GI50 (NCI-H460) was 4.3 µM. It also gave a GI50 (MKN1) of 14 µM, a GI50 (DU-145) of 10 µM and a GI50 (RXF-631L) of 8.4 µM. It also gave a GI50 (NCI-H522) of 5.3 µM, a GI50 (DMS114) of 15 µM and a GI50 (HCT-15) of 0.83 µM.
With `CC(/C=C/[C@@]1(C)[C@H](C)CCC(=O)[C@@H]1C)=C\Cc1c(O)c(Cl)c(C)c(C=O)c1O` [Compound 10, Ascochlorin] the IC50 (Complexes I–III) was 0.0033 ± 0.0001 µM, the “Inhibition (%) Complex I” value (Complex I) was 6.8 ± 4.1% and the inhibition at 1 µM ([1]; at 1,000 nM, read-out: Inhibition of HsDHODH activity (value in parentheses)) was 33%. The IC50 ([1]; Table 6, read-out: IC50 (μM) HsDHODH) was 2300 ± 1900 nM, the IC50 [1, 2] was > 1000 nM and the IC50 (Complex II–III) was 0.0069 ± 0.0002 µM. For the same compound, the IC50 (mammalian complex III) was 0.013 µM, the inhibition at 5 µM (Complex III) was 94 ± 2.4% and the inhibition at 5 µM (Complex II) was 3.6 ± 8.5%.
